Reference: US10760052B2, “Method of inhibiting tau phosphorylation” (priority 2012, dated 2020)
Read-outs that look alike come from different tables or passages of the source.

Key:
[1] = target: VAKGL pentapeptide of filamin A (FLNA) of SEQ ID NO: 1 (Homo sapiens, UniProt P21333); experiment: FITC-NLX-based FLNA screening assay (inhibition of FITC-naloxone binding to Bn-VAKGL on streptavidin plates); conditions: for Percent binding inhibition, preliminary study: 100 nM frozen-stored FITC-NLX, average of two runs; for Binding to FLNA (in words): preliminary study; for Percent Binding Inhibition (FITC-NLX binding): 10 nM FITC-NLX
[2] = target: T1, mu opiate receptor (MOR) (Rattus norvegicus, UniProt P33535); format: biochemical; conditions: for MOR agonist activity ([35S]GTPγS binding), compound as agonist / MOR agonist activity (in words): preliminary study; for MOR agonist activity ([35S]GTPγS binding), compound as agonist: average of two runs; for Concentration of FLNA-Binding Compound as Agonist 0.1 μM / Concentration of FLNA-Binding Compound as Agonist 1 μM / Concentration of FLNA-Binding Compound as Agonist 1 μM + BFNA: [35S]GTPγS binding to Gαo in striatal membranes; for Concentration of FLNA-Binding Compound as Agonist 0.1 μM: compound 0.1 μM; for Concentration of FLNA-Binding Compound as Agonist 1 μM: compound 1 μM; for Concentration of FLNA-Binding Compound as Agonist 1 μM + BFNA: compound 1 μM plus 1 μM β-funaltrexamine (MOR antagonist)
T1 construct: from tissue; host or cells: striatum (membrane preparation)

[3] = target: T2, α7nAChR-FLNA complex (Rattus norvegicus, UniProt A0A8I5ZV49); experiment: Aβ42-induced α7nAChR-FLNA association in rat frontal cortical synaptosomes (co-immunoprecipitation/Western blot); format: cell-based; conditions: 1 or 10 nM compound, simultaneously or 10 minutes prior to Aβ42 (0.1 μM)
T2 construct: from tissue; host or cells: rat frontal cortex synaptosomes
Source text: The α7nAChR-FLNA complexes in the solubilized synaptosomes were immunoprecipitated with immobilized anti-FLNA and the α7nAChR and FLNA levels in the anti-FLNA immunoprecipitates determined by Western blotting (FIG. 2A) and quantified by densitometry (FIG. 2B). n=3. […] The letter designation “M” that accompanies many of the “C-series” compounds is omitted from FIG. 2, the remaining figures and most discussions of the figures and compounds hereinafter for ease in expression. Structural formulas of the compounds used in this and the other figures are provided hereinafter. […]

[4] = test system: tau protein phosphorylated at S202, T231 and T181; experiment: Aβ42-induced tau phosphorylation in rat frontal cortical synaptosomes; format: cell-based; conditions: 1 or 10 nM compound, simultaneously or 10-minute pretreatment; Aβ42 0.1 μM
Experimental: FIG. 4 in four panels as FIGS. 4A-4D, illustrates that FLNA-binding compounds reduce tau phosphorylation at all three phosphorylation sites. […] The three phosphoepitopes of tau were detected in immunoprecipitates using specific antibodies. […] Immunoprecipitates were determined by Western blotting (FIGS. 4A-4C) and quantified by densitometry (FIG. 4D).
(§1) FIG. 42, also in two panels, FIGS. 42A and 42B, illustrates that FLNA-binding compounds reduce tau phosphorylation at all three phosphorylation sites using the compounds and concentrations of FIG. 41 using immunoprecipitation and Western blotting. […] The three phosphoepitopes of tau were detected in immunoprecipitates using specific antibodies.
as §1, with “44,” for “42,”, “FIG. 44A” for “FIGS. 42A”, “FIG. 44B,” for “42B,”, “43” for “41”, “antibodies. Aβ42 strongly promotes tau phosphorylation at all three sites.” for “antibodies.”
as §1, with “46,” for “42,”, “FIG. 46A” for “FIGS. 42A”, “FIG. 46B,” for “42B,”, “45” for “41”, “antibodies. Aβ42 strongly promotes tau phosphorylation at all three sites.” for “antibodies.”
The three primary phosphorylation sites on tau protein were examined for their phosphorylation levels compared to total tau protein content. Tau, phosphorylated at these three sites, is a constituent of NFTs. Consistent with effects on FLNA-α7nAChR association, and ERK2 activation, all of the FLNA-binding compounds assayed, with 10 minute pre-incubation, decreased Aβ42-induced phosphorylation of tau at all three sites (FIG. 4).

T2 sequence (A0A8I5ZV49 entry or part of it, one chain of several): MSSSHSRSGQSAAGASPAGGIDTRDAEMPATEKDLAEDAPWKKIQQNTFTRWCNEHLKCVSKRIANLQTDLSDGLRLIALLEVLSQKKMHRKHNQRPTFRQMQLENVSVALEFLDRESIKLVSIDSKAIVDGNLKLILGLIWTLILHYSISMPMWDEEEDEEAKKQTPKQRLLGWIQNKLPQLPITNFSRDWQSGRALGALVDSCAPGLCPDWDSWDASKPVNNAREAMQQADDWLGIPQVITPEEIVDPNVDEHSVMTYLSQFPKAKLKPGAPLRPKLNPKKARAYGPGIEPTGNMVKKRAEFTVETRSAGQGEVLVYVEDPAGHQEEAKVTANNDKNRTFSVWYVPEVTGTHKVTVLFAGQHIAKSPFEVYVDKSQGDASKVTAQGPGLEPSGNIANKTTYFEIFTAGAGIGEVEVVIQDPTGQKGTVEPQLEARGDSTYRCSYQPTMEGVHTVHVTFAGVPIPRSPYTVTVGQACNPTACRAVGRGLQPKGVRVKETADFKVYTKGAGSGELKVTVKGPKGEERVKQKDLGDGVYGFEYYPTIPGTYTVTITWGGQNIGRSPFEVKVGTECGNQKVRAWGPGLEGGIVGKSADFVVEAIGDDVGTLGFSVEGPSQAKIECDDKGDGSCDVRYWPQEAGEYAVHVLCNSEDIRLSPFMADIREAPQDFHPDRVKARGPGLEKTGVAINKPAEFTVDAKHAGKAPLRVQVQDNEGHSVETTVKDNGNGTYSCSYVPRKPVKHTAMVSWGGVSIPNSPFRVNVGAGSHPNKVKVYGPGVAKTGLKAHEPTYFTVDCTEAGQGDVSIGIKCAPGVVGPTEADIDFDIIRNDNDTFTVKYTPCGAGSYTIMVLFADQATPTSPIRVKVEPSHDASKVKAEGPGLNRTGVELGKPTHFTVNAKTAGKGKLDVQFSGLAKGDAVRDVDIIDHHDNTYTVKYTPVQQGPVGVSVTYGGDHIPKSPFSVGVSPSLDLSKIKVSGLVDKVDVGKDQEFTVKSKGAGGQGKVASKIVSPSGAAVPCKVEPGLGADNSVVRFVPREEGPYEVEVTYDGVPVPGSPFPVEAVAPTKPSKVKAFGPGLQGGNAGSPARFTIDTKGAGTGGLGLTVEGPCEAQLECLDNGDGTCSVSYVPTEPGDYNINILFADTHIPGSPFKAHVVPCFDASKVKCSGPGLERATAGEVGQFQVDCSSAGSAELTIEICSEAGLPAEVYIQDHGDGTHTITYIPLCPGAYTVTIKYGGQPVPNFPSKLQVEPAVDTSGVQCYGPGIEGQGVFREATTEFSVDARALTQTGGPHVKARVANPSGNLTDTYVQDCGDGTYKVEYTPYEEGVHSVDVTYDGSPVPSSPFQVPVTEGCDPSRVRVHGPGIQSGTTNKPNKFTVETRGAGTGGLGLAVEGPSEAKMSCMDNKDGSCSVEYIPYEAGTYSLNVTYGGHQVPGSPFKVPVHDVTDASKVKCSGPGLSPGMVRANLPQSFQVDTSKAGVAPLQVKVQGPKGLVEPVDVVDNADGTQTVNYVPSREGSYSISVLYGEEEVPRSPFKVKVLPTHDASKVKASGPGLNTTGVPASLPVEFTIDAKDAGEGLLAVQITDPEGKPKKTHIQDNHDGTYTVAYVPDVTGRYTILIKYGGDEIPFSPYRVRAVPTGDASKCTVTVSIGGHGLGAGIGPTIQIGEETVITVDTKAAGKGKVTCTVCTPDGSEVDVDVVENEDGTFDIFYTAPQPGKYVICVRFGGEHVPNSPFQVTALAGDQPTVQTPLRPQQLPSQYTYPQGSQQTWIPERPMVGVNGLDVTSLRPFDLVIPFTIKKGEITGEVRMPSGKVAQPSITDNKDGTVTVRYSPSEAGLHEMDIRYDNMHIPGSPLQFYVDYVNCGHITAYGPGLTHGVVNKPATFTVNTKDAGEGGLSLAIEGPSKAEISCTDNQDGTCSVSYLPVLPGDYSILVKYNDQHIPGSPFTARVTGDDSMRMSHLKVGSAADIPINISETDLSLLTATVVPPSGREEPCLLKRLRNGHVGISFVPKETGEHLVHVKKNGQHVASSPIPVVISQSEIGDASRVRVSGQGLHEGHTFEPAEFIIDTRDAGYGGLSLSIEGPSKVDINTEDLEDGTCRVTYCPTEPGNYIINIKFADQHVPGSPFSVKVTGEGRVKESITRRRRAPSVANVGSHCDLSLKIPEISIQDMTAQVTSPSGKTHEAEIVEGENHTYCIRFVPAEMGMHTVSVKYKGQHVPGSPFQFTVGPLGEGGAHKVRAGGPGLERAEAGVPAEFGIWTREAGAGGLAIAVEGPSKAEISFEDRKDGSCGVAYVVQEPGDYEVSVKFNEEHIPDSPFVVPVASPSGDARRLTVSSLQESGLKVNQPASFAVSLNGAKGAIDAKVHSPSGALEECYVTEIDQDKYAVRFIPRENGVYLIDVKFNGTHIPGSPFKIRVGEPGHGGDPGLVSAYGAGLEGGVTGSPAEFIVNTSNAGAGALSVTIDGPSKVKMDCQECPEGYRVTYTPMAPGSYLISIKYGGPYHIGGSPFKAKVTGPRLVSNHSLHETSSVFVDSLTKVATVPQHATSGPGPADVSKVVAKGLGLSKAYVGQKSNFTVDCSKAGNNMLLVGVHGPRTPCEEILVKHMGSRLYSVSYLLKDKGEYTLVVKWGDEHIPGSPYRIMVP
T1 sequence (P33535 whole entry): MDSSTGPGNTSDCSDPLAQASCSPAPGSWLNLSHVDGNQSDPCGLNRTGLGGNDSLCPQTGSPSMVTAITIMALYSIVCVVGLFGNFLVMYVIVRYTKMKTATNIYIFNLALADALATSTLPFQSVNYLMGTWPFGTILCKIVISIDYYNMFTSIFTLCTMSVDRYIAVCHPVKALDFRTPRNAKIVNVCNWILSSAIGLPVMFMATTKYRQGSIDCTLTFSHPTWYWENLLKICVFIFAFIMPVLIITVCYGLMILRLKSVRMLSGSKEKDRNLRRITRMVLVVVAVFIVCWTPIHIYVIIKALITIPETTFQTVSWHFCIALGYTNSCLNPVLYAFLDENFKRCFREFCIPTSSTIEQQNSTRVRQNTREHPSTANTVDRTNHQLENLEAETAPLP

| Compound | Binding to FLNA (in words) [1] | MOR agonist activity ([35S]GTPγS binding), compound as agonist ([2]; 0.1 μM) [%] | MOR agonist activity ([35S]GTPγS binding), compound as agonist ([2]; 1 μM + βNFA) [%] | MOR agonist activity ([35S]GTPγS binding), compound as agonist ([2]; 1 μM) [%] | MOR agonist activity (in words) [2] | Percent Binding Inhibition (FITC-NLX binding) ([1]; 0.01 μM FLNA-binding compound) [%] | Percent Binding Inhibition (FITC-NLX binding) ([1]; 0.1 μM FLNA-binding compound) [%] | Percent Binding Inhibition (FITC-NLX binding) ([1]; 1 μM FLNA-binding compound) [%] | % DAMGO (0.1 μM) [2] [%] | % DAMGO (1 μM) [2] [%] | % DAMGO + BFNA [2] [%] | Concentration of FLNA-Binding Compound as Agonist 0.1 μM [2] [%] | Concentration of FLNA-Binding Compound as Agonist 1 μM [2] [%] | Concentration of FLNA-Binding Compound as Agonist 1 μM + BFNA [2] [%] | α7nAChR-FLNA association (ratio α7nAChR/FLNA) [3] | other results |
| --- | --- | --- | --- | --- | --- | --- | --- | --- | --- | --- | --- | --- | --- | --- | --- | --- |
| C=CCN1CC[C@]23c4c5ccc(O)c4O[C@H]2C(=O)CC[C@]3(O)[C@H]1C5 [(+) NLX, (+)naloxone] |  |  |  |  |  |  |  |  |  |  |  |  |  |  |  | Percent binding inhibition, preliminary study ([1]; 0.1 nM compound): 22.7%; Percent binding inhibition, preliminary study ([1]; 1 nM compound): 22.8%; Percent binding inhibition, preliminary study ([1]; 10 nM compound): 23.1%; Percent binding inhibition, preliminary study ([1]; 100 nM compound): 22.8%; Percent binding inhibition, preliminary study ([1]; 1 μM compound): 39.8% |
| O=S(=O)(c1ccc(OC(F)(F)F)cc1)N1CCOC12CCN(CC1CC1)CC2 [Compound 4] | bound well to FLNA | 133.9 | 49.5 | 165.2 | not as potent a MOR agonist |  |  |  |  |  |  |  |  |  |  |  |
| Cc1ccc(S(=O)(=O)N2CCOC23CCN(CC2CCC2)CC3)cc1 [Compound 9] | bind well to FLNA | 156.6 | 56.6 | 197.2 | MOR agonists |  |  |  |  |  |  |  |  |  |  |  |
| C=CCN1CCC2(CC1)OCCN2S(=O)(=O)c1ccc(C)cc1 [Compound 10] | bind well to FLNA | 163.1 | 60.4 | 191.8 | MOR agonists |  |  |  |  |  |  |  |  |  |  |  |
| CC1CCC(C(C)C)C(OCC(O)CN2CCc3ccccc32)C1 (stereo not drawn) [Compound A0065] |  |  |  |  |  | 38.7 | 50.0 | 50.8 | 126.6 | 115.7 | 112.5 | 197.6 | 266.8 | 44.9 |  |  |
| O=C1CNC2(CCN(C(=S)Nc3ccccc3)CC2)N1Cc1ccccc1 [Compound A] |  |  |  |  |  |  |  |  |  |  |  |  |  |  | statistically different from Aβ42 alone | Aβ42-induced tau phosphorylation at S202, T231 and T181 [4]: reduced tau phosphorylation with simultaneous administration at 1 nM |
| COc1c2c(cc3c1C(CC(=O)c1ccc(F)c(F)c1)[N+](C)(C)CC3)OCO2 (stereo not drawn) [Compound B0003] |  |  |  |  |  | 45.4 | 52.9 | 63.5 | 59.9 | 47.4 | 29.0 | 103.0 | 131.1 | 18.6 |  |  |
| COc1c2c(cc3c1C(CC(O)Cc1ccccc1C)N(C)CC3)OCO2 (stereo not drawn) [Compound B0054] |  |  |  |  |  | 25.6 | 32.6 | 43.3 | 93.4 | 85.3 | 668.7 | 157.8 | 186.7 | 111.0 |  |  |
| O=C1CNC2(CCN(C(=S)Nc3cccnc3)CC2)N1Cc1ccccc1 [Compound B] |  |  |  |  |  |  |  |  |  |  |  |  |  |  | statistically different from Aβ42 alone |  |
| CC(=O)c1ccc(S(=O)(=O)N2CCC3(CC2)NC(=O)CO3)cc1 [Compound C0087] |  |  |  |  |  |  |  |  |  |  |  |  |  |  | reduce α7nAChR-FLNA association |  |
